According to ChEMBL document CHEMBL4665653, “VU6005806/AZN-00016130, an advanced M positive allosteric modulator (PAM) profiled as a potential preclinical development candidate” (Bioorg Med Chem Lett, 2019):

Tests used:
[1] = Oral bioavailability in rat at 3 mg/kg administered as suspension; format: ADME, organism-based; details: in vivo
[2] = Volume of distribution at steady state in cynomolgus monkey; format: ADME, Macaca fascicularis; details: in vivo, read-out: Vdss
[3] = target: Alpha-1B adrenergic receptor (Homo sapiens) (UniProt P35368); assay: Displacement of [3H]-Prazosin from human adrenergic alpha 1B receptor expressed in Chem-1 cells assessed as residual binding level for radioligand at 10 uM incubated for 60 mins by radiometric scintillation analysis relative to control; format: cell-based
[4] = target: Neuropeptide Y receptor type 1 (Homo sapiens) (UniProt P25929); assay: Displacement of [125I]peptide YY from human Y1 receptor in SK-N-MC cell membrane assessed as residual binding level for radioligand at 10 uM after 120 mins by scintillation counting analysis relative to control
[5] = target: Interleukin-1 receptor type 1 (Homo sapiens) (UniProt P14778); assay: Displacement of [125I]-Interleukin 1beta from human interleukin IL-1 R1 receptor assessed as residual binding level for radioligand at 10 uM incubated for 1200 mins by scintillation counting analysis relative to control
[6] = target: L-type calcium channel Cav1.2, benzothiazepine binding site (Rattus norvegicus, UniProt P22002); assay: Displacement of [3H]-Diltiazem from L-type calcium channel Cav1.2 benzothiazepine binding site in Wistar rat brain membrane assessed as residual binding level for radioligand at 10 uM incubated for 180 mins by radiometric scintillation analysis relative to control; format: cell membranes; details: probe [3H]-Diltiazem, read-out: Activity
[7] = Unbound brain-to-plasma concentration ratio in cynomolgus monkey; format: ADME, Macaca fascicularis; details: read-out: K(p,uu,brain)
[8] = Positive allosteric modulation of dog M4 receptor; design: species or system Canis lupus familiaris
[9] = target: Neuronal acetylcholine receptor; alpha3/beta4 (Homo sapiens) (UniProt P30926+P32297); assay: Displacement of [125I] epibatidine from human nicotinic acetylcholine receptor alpha3/beta4 assessed as residual binding level for radioligand at 10 uM incubated for 60 mins by scintillation counting analysis relative to control; format: protein-complex assay
Macaca fascicularis = organism: Macaca fascicularis; assay: Positive allosteric modulation of cynomolgus monkey M4 receptor relative to acetylcholine; details: filed as positive allosteric modulator
[10] = target: Muscarinic acetylcholine receptor M3 (Homo sapiens, UniProt P20309); assay: Displacement of [3H]N-Methylscopolamine from full length human recombinant muscarinic M3 receptor expressed in CHOK1 cells assessed as residual binding level for radioligand at 10 uM measured after 120 mins by radiometric scintillation analysis relative to control; format: cell-based; details: CHO-K1
[11] = target: T1, Muscarinic acetylcholine receptor M4 (Homo sapiens, UniProt P08173); assay: Positive allosteric modulation of human M4 receptor/Gqi5 in presence of EC20 acetylcholine by calcium mobilization assay; format: functional
T1 sequence (P08173 whole entry): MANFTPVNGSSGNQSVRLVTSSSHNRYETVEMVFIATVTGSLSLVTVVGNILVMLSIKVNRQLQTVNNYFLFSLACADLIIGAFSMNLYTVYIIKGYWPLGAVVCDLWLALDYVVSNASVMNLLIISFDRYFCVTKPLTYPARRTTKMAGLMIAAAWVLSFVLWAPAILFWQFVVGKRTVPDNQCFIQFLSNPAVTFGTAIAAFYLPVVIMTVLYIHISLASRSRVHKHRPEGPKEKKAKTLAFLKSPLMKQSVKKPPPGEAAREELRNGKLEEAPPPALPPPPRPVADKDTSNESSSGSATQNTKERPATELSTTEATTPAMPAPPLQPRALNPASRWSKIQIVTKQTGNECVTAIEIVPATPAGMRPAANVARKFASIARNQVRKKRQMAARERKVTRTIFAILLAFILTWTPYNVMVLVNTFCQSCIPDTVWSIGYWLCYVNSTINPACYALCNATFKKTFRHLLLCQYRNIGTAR

[12] = Fraction unbound in human plasma; format: ADME, cell-free
[13] = target: Cysteinyl leukotriene receptor 1 (Homo sapiens) (UniProt Q9Y271); assay: Displacement of [3H]LTD4 from full length recombinant human CysLT1 Leukotriene receptor expressed in CHO-K1 cells assessed as residual binding level for radioligand at 10 uM incubated for 30 mins radiometric scintillation analysis relative to control; format: cell-based
[14] = target: Beta-1 adrenergic receptor (Homo sapiens) (UniProt P08588); assay: Displacement of [125I]Cyanopindolol from recombinant full length human beta1 adrenoceptor expressed in CHO-K1 cells assessed as residual binding level for radioligand at 10 uM after 120 mins by radiometric scintillation analysis relative to control; format: cell-based
[15] = target: D(2) dopamine receptor (Homo sapiens) (UniProt P14416); assay: Displacement of [3H]Spiperone from full length human dopamine D2S receptor expressed in CHO cells assessed as residual binding level for radioligand at 10 uM after 120 mins by radiometric scintillation analysis relative to control; format: cell-based
[16] = target: Delta-type opioid receptor (Homo sapiens) (UniProt P41143); assay: Displacement of [3H]-Naltrindole from recombinant full length human delta opioid receptor expressed in HEK293 cells assessed as residual binding level for radioligand at 10 uM incubated for 60 mins by scintillation counting analysis relative to control; format: cell-based
[17] = target: Acetylcholine receptor subunit alpha (Homo sapiens) (UniProt P02708); assay: Displacement of [125I]-alpha-Bungarotoxin from full length nAChR alpha1 receptor in human RD cell membranes assessed as residual binding level for radioligand at 10 uM measured after 120 mins by radiometric scintillation analysis relative to control
[18] = Half life in rat; format: ADME; details: in vivo
[19] = target: Mu-type opioid receptor (Homo sapiens) (UniProt P35372); assay: Displacement of [3H]-Diprenorphine from recombinant full length human mu opioid receptor expressed in CHO-K1 cells assessed as residual binding level for radioligand at 10 uM incubated for 60 mins by scintillation counting analysis relative to control; format: cell-based
[20] = target: Histamine H1 receptor (Homo sapiens) (UniProt P35367); assay: Displacement of [3H]pyrilamine from full length recombinant human histamine H1 receptor expressed in CHO-K1 cells assessed as residual binding level for radioligand at 10 uM after 180 mins by scintillation counting analysis relative to control; format: cell-based
[21] = target: Voltage-dependent N-type calcium channel subunit alpha-1B (Rattus norvegicus) (UniProt Q02294); assay: Displacement of [125I]-w-conotoxin GIVA from N-type calcium channel Cav2.2 in Wistar rat brain membrane assessed as residual binding level for radioligand at 10 uM incubated for 30 mins by radiometric scintillation analysis relative to control; format: cell membranes
[22] = Plasma clearance in dog; format: ADME, Canis lupus familiaris; details: read-out: CL(app)
[23] = target: Histamine H2 receptor (Homo sapiens) (UniProt P25021); assay: Displacement of [125I]aminopotentidine full length recombinant human histamine H2 receptor expressed in CHO-K1 cells assessed as residual binding level for radioligand at 10 uM after 120 mins by scintillation counting analysis relative to control; format: cell-based
[24] = target: Androgen receptor (Homo sapiens) (UniProt P10275); assay: Displacement of [3H]methyltrienolone from androgen receptor in human LNCaP cells assessed as residual binding level for radioligand at 10 uM measured after 1200 mins radiometric scintillation analysis relative to control; format: cell-based
[25] = Fraction unbound in rat plasma; format: ADME, cell-free
[26] = target: Muscarinic acetylcholine receptor M5 (Rattus norvegicus, UniProt P08911); assay: Positive allosteric modulation of rat M5 receptor
Cytochrome P450 1A2 = Cytochrome P450 1A2 (Homo sapiens, UniProt P05177); assay: Inhibition of CYP1A2 (unknown origin); format: ADME
Cytochrome P450 1A2, sequence (P05177 whole entry): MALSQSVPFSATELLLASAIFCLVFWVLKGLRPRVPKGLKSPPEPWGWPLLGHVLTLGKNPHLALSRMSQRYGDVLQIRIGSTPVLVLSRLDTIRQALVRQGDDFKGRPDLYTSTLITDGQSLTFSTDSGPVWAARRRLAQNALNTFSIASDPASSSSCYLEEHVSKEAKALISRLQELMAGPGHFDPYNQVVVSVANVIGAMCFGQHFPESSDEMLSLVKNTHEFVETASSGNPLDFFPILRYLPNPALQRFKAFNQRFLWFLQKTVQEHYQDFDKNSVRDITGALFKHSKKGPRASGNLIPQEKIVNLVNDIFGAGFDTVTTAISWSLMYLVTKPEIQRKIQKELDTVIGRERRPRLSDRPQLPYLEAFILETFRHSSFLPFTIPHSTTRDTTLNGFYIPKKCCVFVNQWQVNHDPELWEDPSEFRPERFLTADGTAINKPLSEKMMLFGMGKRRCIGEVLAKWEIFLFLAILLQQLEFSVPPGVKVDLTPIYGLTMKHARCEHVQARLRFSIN

Mu-type opioid receptor (Homo sapiens), sequence (P35372 whole entry): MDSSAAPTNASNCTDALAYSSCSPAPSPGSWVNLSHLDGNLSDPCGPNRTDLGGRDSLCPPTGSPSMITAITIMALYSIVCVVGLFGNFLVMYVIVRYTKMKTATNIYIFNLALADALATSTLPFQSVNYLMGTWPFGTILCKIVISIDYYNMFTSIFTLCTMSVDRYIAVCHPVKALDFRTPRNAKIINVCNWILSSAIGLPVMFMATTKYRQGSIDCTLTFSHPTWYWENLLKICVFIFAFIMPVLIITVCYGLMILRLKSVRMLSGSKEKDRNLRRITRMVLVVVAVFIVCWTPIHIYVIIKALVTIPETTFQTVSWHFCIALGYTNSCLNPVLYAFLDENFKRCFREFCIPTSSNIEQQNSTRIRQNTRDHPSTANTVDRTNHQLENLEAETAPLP
Androgen receptor (Homo sapiens), sequence (P10275 whole entry): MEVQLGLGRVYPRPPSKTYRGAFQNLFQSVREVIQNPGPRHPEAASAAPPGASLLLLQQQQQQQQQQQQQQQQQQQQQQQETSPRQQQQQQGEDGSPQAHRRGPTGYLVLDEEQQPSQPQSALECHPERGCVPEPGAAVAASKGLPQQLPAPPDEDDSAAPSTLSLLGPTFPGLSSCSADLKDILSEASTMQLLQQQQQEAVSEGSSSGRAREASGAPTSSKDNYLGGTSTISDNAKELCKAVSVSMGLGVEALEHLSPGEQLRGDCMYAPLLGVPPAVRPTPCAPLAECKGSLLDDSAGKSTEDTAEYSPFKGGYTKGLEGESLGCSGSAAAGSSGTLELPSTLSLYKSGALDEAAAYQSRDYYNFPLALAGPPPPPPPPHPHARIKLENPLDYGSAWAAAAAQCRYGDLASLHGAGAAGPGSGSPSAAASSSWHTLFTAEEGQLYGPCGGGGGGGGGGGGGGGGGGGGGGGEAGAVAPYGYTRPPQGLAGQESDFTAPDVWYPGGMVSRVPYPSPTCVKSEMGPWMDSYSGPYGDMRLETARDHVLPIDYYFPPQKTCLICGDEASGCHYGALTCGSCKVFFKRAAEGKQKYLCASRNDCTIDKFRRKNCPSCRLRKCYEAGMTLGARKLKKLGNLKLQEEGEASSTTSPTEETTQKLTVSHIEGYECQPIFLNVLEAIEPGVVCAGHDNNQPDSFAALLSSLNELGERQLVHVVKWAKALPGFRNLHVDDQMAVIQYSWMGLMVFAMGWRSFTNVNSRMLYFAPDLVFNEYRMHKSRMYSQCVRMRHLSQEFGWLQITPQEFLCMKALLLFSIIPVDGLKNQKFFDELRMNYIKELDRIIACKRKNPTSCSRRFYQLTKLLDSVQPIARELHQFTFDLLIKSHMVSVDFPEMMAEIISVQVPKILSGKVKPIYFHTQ
Histamine H2 receptor (Homo sapiens), sequence (P25021 whole entry): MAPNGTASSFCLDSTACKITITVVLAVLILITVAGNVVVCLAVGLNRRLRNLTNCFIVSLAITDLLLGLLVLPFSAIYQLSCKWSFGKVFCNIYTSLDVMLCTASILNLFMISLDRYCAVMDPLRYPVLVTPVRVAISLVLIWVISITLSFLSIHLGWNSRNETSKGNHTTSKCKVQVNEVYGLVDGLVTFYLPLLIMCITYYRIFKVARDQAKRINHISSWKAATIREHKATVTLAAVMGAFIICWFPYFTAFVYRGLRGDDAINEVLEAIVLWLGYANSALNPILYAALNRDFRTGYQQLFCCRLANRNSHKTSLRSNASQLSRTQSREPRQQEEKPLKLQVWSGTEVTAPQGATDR
Neuropeptide Y receptor type 1 (Homo sapiens), sequence (P25929 whole entry): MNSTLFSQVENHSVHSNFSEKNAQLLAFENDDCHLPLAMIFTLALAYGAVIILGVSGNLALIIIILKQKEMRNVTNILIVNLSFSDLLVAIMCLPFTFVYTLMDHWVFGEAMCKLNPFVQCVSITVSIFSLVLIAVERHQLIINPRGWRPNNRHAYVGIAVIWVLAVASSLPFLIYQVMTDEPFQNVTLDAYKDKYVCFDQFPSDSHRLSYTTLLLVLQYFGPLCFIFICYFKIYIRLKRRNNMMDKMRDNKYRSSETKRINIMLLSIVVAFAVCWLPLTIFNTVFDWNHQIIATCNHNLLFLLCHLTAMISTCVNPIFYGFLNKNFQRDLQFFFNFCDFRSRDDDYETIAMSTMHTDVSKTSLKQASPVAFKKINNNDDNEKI
D(2) dopamine receptor (Homo sapiens), sequence (P14416 whole entry): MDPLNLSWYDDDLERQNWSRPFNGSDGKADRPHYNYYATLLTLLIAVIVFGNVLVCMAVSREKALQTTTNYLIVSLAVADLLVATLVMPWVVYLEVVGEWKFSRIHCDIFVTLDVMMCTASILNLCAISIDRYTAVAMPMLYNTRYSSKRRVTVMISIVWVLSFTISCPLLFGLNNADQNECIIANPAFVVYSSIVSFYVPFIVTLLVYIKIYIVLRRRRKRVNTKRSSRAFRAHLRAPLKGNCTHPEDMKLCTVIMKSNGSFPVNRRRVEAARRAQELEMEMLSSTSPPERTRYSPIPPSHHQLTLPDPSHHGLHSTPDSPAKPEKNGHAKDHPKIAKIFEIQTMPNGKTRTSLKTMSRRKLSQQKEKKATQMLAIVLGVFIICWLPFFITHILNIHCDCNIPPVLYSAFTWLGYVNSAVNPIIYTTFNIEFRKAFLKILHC
Beta-1 adrenergic receptor (Homo sapiens), sequence (P08588 whole entry, looked up): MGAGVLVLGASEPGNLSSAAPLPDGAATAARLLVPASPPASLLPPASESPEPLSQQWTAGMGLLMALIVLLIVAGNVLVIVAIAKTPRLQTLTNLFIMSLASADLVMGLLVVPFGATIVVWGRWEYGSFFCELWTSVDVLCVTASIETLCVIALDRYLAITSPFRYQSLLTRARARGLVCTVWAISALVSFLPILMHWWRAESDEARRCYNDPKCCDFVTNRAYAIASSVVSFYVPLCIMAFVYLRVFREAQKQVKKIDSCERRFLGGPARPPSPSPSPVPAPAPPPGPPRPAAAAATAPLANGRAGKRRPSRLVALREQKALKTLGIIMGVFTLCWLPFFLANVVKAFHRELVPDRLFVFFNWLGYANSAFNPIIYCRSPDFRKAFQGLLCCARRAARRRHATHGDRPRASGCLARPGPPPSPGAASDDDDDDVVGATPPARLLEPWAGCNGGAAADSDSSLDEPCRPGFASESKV
Delta-type opioid receptor (Homo sapiens), sequence (P41143 whole entry): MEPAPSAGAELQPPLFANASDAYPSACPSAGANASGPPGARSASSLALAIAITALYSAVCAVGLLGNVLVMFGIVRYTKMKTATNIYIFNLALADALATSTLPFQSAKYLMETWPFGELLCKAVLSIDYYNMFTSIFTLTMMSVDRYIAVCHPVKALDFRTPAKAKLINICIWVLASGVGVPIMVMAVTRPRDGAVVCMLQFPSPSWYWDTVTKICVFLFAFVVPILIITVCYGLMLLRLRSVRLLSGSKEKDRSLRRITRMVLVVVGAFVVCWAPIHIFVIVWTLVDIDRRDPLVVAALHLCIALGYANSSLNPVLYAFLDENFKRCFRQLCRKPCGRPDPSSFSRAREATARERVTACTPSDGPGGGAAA
Muscarinic acetylcholine receptor M3, sequence (P20309 whole entry, looked up): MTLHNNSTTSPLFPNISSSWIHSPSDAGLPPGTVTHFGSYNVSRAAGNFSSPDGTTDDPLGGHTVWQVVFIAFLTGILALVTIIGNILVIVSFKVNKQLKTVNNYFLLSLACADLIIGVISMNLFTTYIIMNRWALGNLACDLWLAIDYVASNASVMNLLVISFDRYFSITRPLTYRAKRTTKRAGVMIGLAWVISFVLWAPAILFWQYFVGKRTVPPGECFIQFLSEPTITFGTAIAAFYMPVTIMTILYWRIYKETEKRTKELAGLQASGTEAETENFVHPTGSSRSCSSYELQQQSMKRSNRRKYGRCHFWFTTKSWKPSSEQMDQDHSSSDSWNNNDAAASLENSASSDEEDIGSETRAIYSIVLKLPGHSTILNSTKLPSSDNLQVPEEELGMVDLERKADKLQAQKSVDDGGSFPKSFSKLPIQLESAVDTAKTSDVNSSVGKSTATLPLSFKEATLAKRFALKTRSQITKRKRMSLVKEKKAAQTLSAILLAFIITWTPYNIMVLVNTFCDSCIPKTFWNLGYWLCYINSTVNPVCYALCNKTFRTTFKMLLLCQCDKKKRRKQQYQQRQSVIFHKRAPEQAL
Cysteinyl leukotriene receptor 1 (Homo sapiens), sequence (Q9Y271 whole entry): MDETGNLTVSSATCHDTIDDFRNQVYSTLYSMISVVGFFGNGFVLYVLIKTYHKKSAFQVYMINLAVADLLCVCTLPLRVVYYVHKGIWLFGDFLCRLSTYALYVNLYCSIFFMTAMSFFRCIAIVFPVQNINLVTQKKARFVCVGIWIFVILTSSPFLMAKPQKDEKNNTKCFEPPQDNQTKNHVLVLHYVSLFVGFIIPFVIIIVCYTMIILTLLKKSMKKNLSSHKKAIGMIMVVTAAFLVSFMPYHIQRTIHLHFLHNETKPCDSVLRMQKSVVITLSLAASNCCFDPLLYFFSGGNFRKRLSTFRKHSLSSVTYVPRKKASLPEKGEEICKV

Compound: COc1nnc2sc(C(=O)NC3CN(c4ncc(C(F)(F)F)cn4)C3)c(N)c2c1C
- bioavailability [1]: 57%
- Vd [2]: 0.74 L/kg
- Activity [3]: > 50%
- Activity [4]: > 50%
- Activity [5]: > 50%
- activity at 3 h, 10 µM [6]: > 50%
- Kp uu [7]: 1.5
- EC50 [8]: 87 nM
- Activity [9]: > 50%
- %max (Macaca fascicularis): 57%
- Activity [10]: > 50%
- EC50 [11]: 90 nM
- fraction unbound [12]: 0.02
- Activity [13]: > 50%
- Activity [14]: > 50%
- Activity [15]: > 50%
- Activity [16]: > 50%
- Activity [17]: > 50%
- half-life [18]: 2.8 h
- Activity [19]: > 50%
- Activity [20]: > 50%
- Activity [21]: > 50%
- clearance [22]: 5.9 mL/min/kg
- Activity [23]: > 50%
- Activity [24]: > 50%
- fraction unbound [25]: 0.018
- EC50 [26]: > 30000 nM
- IC50 (Cytochrome P450 1A2): > 30000 nM
